Measured values from US10047068B2, “Optical resolution method of lenalidomide” (Shiseido Company, Ltd, priority 2014, dated 2018).

Tests used:
[1] = Stability of lenalidomide in different solvents; type: physicochemical; conditions: 0.5 mg/mL racemic mixture, room temperature or 50° C., 24 hours
[2] = Dependence of racemization half-life on pH in aqueous buffers at room temperature; type: physicochemical
Experimental: In order to elucidate the racemization half-life of lenalidomide and its pH dependence, an experiment was conducted with the following scheme and HPLC conditions.
The enantiomeric excess rate (EE, [(S−R)/(S+R)×100], %) at each point is plotted in FIG. 7, and the log10 (EE) vs. time plot is shown in FIG. 8.
This linearity was used to calculate the time for EE=50 based on a straight line approximation (y=ax+b), to determine the racemization half-life. The stability of the pure enantiomer is very highly dependent on pH, the half-life being 10 times longer for every pH reduction of 1, and estimation of the half-life was no longer possible at pH 4. At pH 9, on the other hand, sudden racemization and decomposition were observed.

[3] = Racemization half-life in human serum (37° C.); conditions: for racemization half-life in serum, times longer than the corresponding TD enantiomer: human serum, 37° C.
Text: The analysis method of the invention is shown as scheme (b). The acid used to suspend the reaction while simultaneously precipitating and removing the protein was HClO4.

[4] = Na-phosphate buffer pH 7.4, 37° C., average of 3 tests ± SD
[5] = NPL 11; cited from earlier work

Nc1cccc2c1CN(C1CCC(=O)NC1=O)C2=O (racemic) [lenalidomide, Lenalidomide]
stability in solvent (enantiomer peak areas before and after incubation) ([1]; acetonitrile): no decomposition was observed | stability in solvent (enantiomer peak areas before and after incubation) ([1]; ethanol): highly unstable | stability in solvent (enantiomer peak areas before and after incubation) ([1]; ethyl acetate): no decomposition was observed | stability in solvent (enantiomer peak areas before and after incubation) ([1]; isopropanol): stable | stability in solvent (enantiomer peak areas before and after incubation) ([1]; methanol): highly unstable | racemization and decomposition in aqueous buffer (peak areas) ([2]; pH 9 and 8, room temperature): racemization and decomposition of LL takes place

Nc1cccc2c1CN(C1CCC(=O)NC1=O)C2=O (single isomer, unassigned) [(R*)-LL]
racemization half-life in serum, times longer than the corresponding TD enantiomer [3]: 3 times | racemization half-life in human serum [3]: 1.82 ± 0.0333 h | racemization half-life in aqueous buffer [4]: 4.45 ± 0.0183 h

O=C1CCC(N2C(=O)c3ccccc3C2=O)C(=O)N1 (racemic) [thalidomide]
excretion half-life [5]: 8.7 h

Nc1cccc2c1CN(C1CCC(=O)NC1=O)C2=O (single isomer, unassigned) [(S*)-LL]
racemization on incubation in aqueous buffer ([2]; pH 6, room temperature): small amount of (R*)-LL was produced | racemization on incubation in aqueous buffer ([2]; pH 7 and higher, room temperature): racemization was significantly accelerated | racemization half-life in serum, times longer than the corresponding TD enantiomer [3]: 6 times | racemization half-life in human serum [3]: 2.18 ± 0.0817 h | racemization half-life in aqueous buffer [4]: 4.53 ± 0.0217 h
